Experimental findings from patent US11778995B2, “Genetically modified non-human animals and methods of use thereof” (Regeneron Pharmaceuticals, Inc., priority 2012, dated 2023) are described below.

The experiment concerns INA-6 cells. The experiment in a line: μCT analysis of murine femurs after treatment of INA-6-engrafted mice with anti-myeloma drugs. Format: in vivo, mouse. The settings on record: Rag2−/−Il2rgnullIl6h/hhSIRPa+ mice engrafted with 5×10^5 intrafemorally injected INA-6 cells, treated biweekly, femurs analyzed after four weeks, compared to untreated mice. The source says: FIG. 7 is a graph depicting the results of μCT analysis of murine femurs after treatment with anti-myeloma drugs. Rag2^−/−Il2rg^nullIl6^h/hhSIRPa+ were engrafted with 5×10^5 intrafemorally injected INA-6 cells and treated biweekly with Velcade® or Zometa®, respectively. After four weeks, mice were sacrificed and femurs were fixed in 70% ethanol for μCT analysis. Trabecular bone and tissue volumes were quantified to calculate the ratio between bone to tissue volume.
Transplantation of cells. For intrafemoral transplantation of INA6 cells, Rag2^−/−Il2rg^null Il6^h/hhSIRPa^+ mice were irradiated twice with 200 rad from an X-ray source.
Indicated amounts of cells were then transplanted into the femur of recipient mice. Briefly, mice were anaesthetized using Ketamine/Xylazine and a hole was drilled into the patellar surface of the femur using a 26 gauge needle. The cells were then slowly injected in a volume of 20 μl using a 27 gauge needle. […]
μCT. Femur morphometry was quantified using cone-beam microfocus x-ray computed tomography (μCT40; ScancoMedicalAG). […]
Therefore, it was next examined whether transplantation of the tumor cell line in its natural microenvironment is able to reproduce the pathology typically associated with human MM. […] Specifically, the loss of trabecular bone mass was observed by histology, which was quantified by μCT. […]

Regarding `O=P(O)(O)C(O)(Cn1ccnc1)P(=O)(O)O` [Zometa], the “bone resorption as quantified by μCT (ratio between bone to tissue volume)” value is given as “able to reduce bone resorption”.
